Assay results as given in US20110152268A1, “NOVEL PHARMACEUTICAL COMPOSITION FOR TREATING NOCICEPTIVE PAIN” (ASTELLAS PHARMA INC., priority 2008, published 2011).
Counter-ions that a name gives are not always drawn. Like-named read-outs stand apart in the source and are kept apart here.

Key:
[1] = test system: Monoiodoacetate (MIA)-Induced Osteoarthritis Model; details: rats, 3 weeks after MIA administration, inflammation already recovered; cited from earlier work
[2] = test system: Bradykinin-Induced Knee Pain Model
Protocol: The induction and evaluation of the present model was basically carried out in accordance with Ann Rheum Dis, 52, 817-822 (1993). A diluted solution, which was diluted with a solvent so as to obtain a vehicle and the compound A having a predetermined concentration, was orally administered to male SD rats (6-7 week old, obtained by Charles River Laboratories Japan, Inc.). This test was carried out for 10 rats of each group. The solvent herein used was distilled water. […] The inhibition rate of the drug to be tested was calculated by setting the difference in weight of a vehicle-administered group to an inhibition rate of 0% and the difference in weight of a normal group to an inhibition rate of 100%. Significant difference testing was carried out by between-group comparison between the vehicle group and the drug group using a Dunnett's t-test after ANOVA testing.

[3] = test system: Adjuvant-Derived Arthritis Rat; assay: Inhibitory effect on the difference in hindlimb weight of adjuvant-derived arthritis rat; format: in vivo
Protocol: In this test, female Lewis rats (7-8 weeks old) were used. 50 μL of H37 Ra (manufactured by DIFCO Co.), Mycobacterium tuberculosis suspended with liquid paraffin to a concentration of 10 mg/mL was subcutaneously administered around the right hind footpad. […] The number of rats of each group was 8. The solvent herein used was distilled water. When taking into consideration the period for obtaining a maximum in-blood-concentration, at one hour after administration, the difference in weight between the left and right hindlimbs was measured using an incapacitance tester (manufactured by Linton Instrumentation, Norfolk, UK).

[4] = test system: Bradykinin-Induced Knee Pain Model; details: as a joint injection; cited from earlier work
[5] = test system: Monoiodoacetate (MIA)-Induced Osteoarthritis Model; assay: Analgesic action in monoiodoacetate (MIA)-induced osteoarthritis model (difference in hindlimb weight); format: in vivo, rat; details: male SD rats, 3 weeks after MIA, oral, compound A 30 mg/kg, 1 hour after administration
Protocol: The present disease model was produced based on the description of Toxicol Pathol 31 (6), 619-624 (2003). […] MIA was dissolved in physiological saline and 50 μl of the resulting solution was administered with a needle (26 gauge, 0.5 inch). […] The solvent herein used was distilled water. One hour after administration, the difference in weight between the left and right hindlimbs was measured using an incapacitance tester (manufactured by Linton Instrumentation, Norfolk, UK).

[6] = compound A 10 mg/kg vs duloxetine 30 mg/kg, oral

In the case of `COc1ccc2c(c1)c(CC(=O)O)c(C)n2C(=O)c1ccc(Cl)cc1` [indomethacin], the “effectiveness of NSAIDs on pain in this stage of the MIA model” value [1] is listed as “not effective”.
For `C1=Cc2cccc(OCC3CNCCO3)c2C1` (single isomer, unassigned; (+)) [compound A benzenesulfonate, (+)-2-[(inden-7-yloxy)methyl]morpholine], the “improvement effect (inhibition rate) on pain behavior score” value ([2]; male SD rats, oral, 10 mg/kg, bradykinin injected 1 hour after administration) was 55%.
For `CNCC[C@H](Oc1cccc2ccccc12)c1cccs1` [duloxetine hydrochloride, (S)—N-methyl-γ-(1-naphthalenyloxy)-2-thiophenepropanamine], the “improvement effect (inhibition rate) on the difference in hindlimb weight” value ([3]; rat, in vivo, po, 30 mg/kg) was 63%.
With `C1=Cc2cccc(OCC3CNCCO3)c2C1` (single isomer, unassigned; (+)) [compound A, (+)-2-[(inden-7-yloxy)methyl]morpholine] the “improvement effect relative to duloxetine” value [3, 6] was “about 3 fold” and the “improvement effect relative to duloxetine” value [2, 6] was roughly 3 fold.
With `CNCC[C@H](Oc1cccc2ccccc12)c1cccs1` [duloxetine, (S)—N-methyl-γ-(1-naphthalenyloxy)-2-thiophenepropanamine] the “improvement effect (inhibition rate) on pain behavior score” value ([2]; rat, in vivo, po, 30 mg/kg) was 56%.
For hyaluronan, the “effectiveness in the bradykinin model” value [4] is listed as “effective”.
For `C1=Cc2cccc(OCC3CNCCO3)c2C1` (single isomer, unassigned; (+)) [compound A hydrobromate, (+)-2-[(inden-7-yloxy)methyl]morpholine], the “improvement effect (inhibition rate) on the difference in hindlimb weight” value [5] was 54% and the “improvement effect (inhibition rate) on the difference in hindlimb weight” value ([3]; female Lewis rats, day after adjuvant, oral, 10 mg/kg, 1 hour after administration) was 65%.
For `O=C(O)Cc1ccccc1Nc1c(Cl)cccc1Cl` [diclofenac], the “effectiveness of NSAIDs on pain in this stage of the MIA model” value [1] is listed as “not effective”.
